From patent publication US12509714B2, “Multiple heteroresistance to guide combination antibiotic regimens” (priority 2018, dated 2025)
Entries after “also recorded” stand apart in the source; their conditions may differ. Like-named read-outs stand apart in the source and are kept apart here.

Tests used:
[1] = test system: Enterobacter cloacae isolate Mu208; assay: Frequency of resistant subpopulations of Mu208 on antibiotic treatment and after subculture without antibiotic; type: cell-based; conditions: for frequency of resistant subpopulation upon subculture in the absence of antibiotic: antibiotic-free subculture; for frequency of the respective resistant subpopulation on treatment: in the presence of the antibiotic
Mu1176 = assay: Control isolate Mu1176, resistance designation; type: cell-based
From the text: (§1) Bacterial isolates. Enterobacter cloacae isolate Mu208 was isolated from a urine sample at an Atlanta area hospital. […] Carbapenem-resistant Enterobacteriaceae (CRE) were collected between 2013 and 2015 by the Georgia EIP MuGSI. The CDC for provided pan-resistant Klebsiella pneumoniae isolates AR0040 and Nevada-2016.

[2] = test system: Enterobacter cloacae isolate Mu208; type: cell-based; conditions: for initial reduction in bacterial levels: ceftazidime 128, ampicillin 128 μg/mL
Method: (§2) Time kills. Time kills were conducted. Briefly, 10^6 CFU/mL bacteria from an overnight culture were inoculated into 2 mL MH media in culture tubes (Globe Scientific) with and without antibiotic(s). The following concentrations were used: colistin 16 μg/mL, ceftazidime 128 μg/mL, fosfomycin 256 μg/mL (+25 mg/L Glucose-6-Phosphate (G6P)), ampicillin 128 μg/mL (FIG. 1e-h and Supplementary FIG. 2), fosfomycin 256 μg/mL (+25 mg/L G6P), trimethoprim 4 μg/mL sulfamethoxazole 76 μg/mL, amikacin 64 μg/mL, and piperacillin 256 μg/mL tazobactam 4 μg/mL (FIGS. 5C, D, G, H). Cultures were incubated at 37° C. shaking at 250 RPM for 1-48 hours. CFU were determined by serial diluting bacteria in PBS prior to plating on MH agar plates at various timepoints in the assay (0, 1, 2, 4, 6, 8, 10, 24, and 48 hour timepoints were used for time-kills). In FIG. 1E-H, serially diluted bacteria were also plated on MH agar plates with antibiotic added (colistin 16 μg/mL, ceftazidime128 μg/mL, fosfomycin 256 μg/mL(+25 mg/L G6P), and ampicillin 128 μg/mL). In FIGS. 5D, H culture tubes were imaged with a Canon EOS Rebel T3i.

[3] = test system: Enterobacter cloacae isolate Mu208; type: cell-based; conditions: for resistance status of Mu208 by PAP: Mueller Hinton agar, 0-4 times the breakpoint
Method: (§3) Population analysis profile. Population analysis profiles (PAPs) were conducted. Briefly, solid agar plates were made for each antibiotic at 7 concentrations containing 0, 0.125, 0.25, 0.5, 1, 2 and 4 times the breakpoint, using Mueller Hinton agar. Breakpoint concentrations for Enterobacteriaceae from CLSI (amikacin 64 ug/mL, gentamicin 16 ug/mL, tobramycin 16 ug/mL, ampicillin 32 ug/mL, aztreonam 16 ug/mL, cefazolin 32 ug/mL, cefepime 16 ug/mL, ceftazidime 16 ug/mL, meropenem 4 ug/mL, piperacillin/tazobactam 128/4 ug/mL, ciprofloxacin 1 ug/mL, fosfomycin 256 ug/mL (breakpoint for UPEC; 25 mg/L glucose-6-phosphate added to the media), tetracycline 16 ug/mL, trimethoprim/sulfamethoxazole 4/76 ug/mL), FDA (tigecycline 8 ug/mL), or EUCAST (colistin 4 ug/mL) were used. Dual PAPs were made similarly, with both drugs in each plate at the same multiple of their respective breakpoint (0, 0.125, 0.25, 0.5, 1, 2, 4 times the breakpoint). Isolates to be tested were grown up overnight in Mueller Hinton broth from a single colony isolated from a frozen stock. Serial microdilutions were plated at each concentration of antibiotic. Colonies were enumerated after overnight growth at 37° C. An isolate was classified as resistant if the number of colonies that grew at the breakpoint concentration were at least 50% of those that grew on antibiotic free plates. If an isolate was not resistant, it was classified as heteroresistant if the number of colonies that grew at 2 or 4 times the breakpoint were at least 0.0001% (1 in 10^6) of those that grew on antibiotic free plates. If isolates were neither classified as resistant or heteroresistant, they were classified as susceptible.

Mu712 = test system: Mu712
From the text: as §1

Mu661 = assay: Control isolate Mu661, resistance designation; type: cell-based
From the text: as §1

[4] = test system: carbapenem-resistant Enterobacteriaceae (CRE) clinical isolates; assay: PAP screen of 104 CRE clinical isolates for heteroresistance to 16 antibiotics; type: cell-based; conditions: 104 CRE isolates
Method: as §3, with “If an isolate was not resistant, it was classified as heteroresistant if the number of colonies that grew at 2 or 4 times the breakpoint were at least 0.0001% (1 in 10^6) of those that grew on antibiotic free plates. If isolates were neither classified as resistant or heteroresistant, they were classified as susceptible.” left out

[5] = test system: pan-resistant Klebsiella pneumoniae isolate Nevada-2016; type: cell-based; conditions: breakpoint concentration
Method: as §2

Mu819 = assay: Susceptible control isolate Mu819 (designation, PAP, time kill); type: cell-based
Method: as §1, §3
as §2, with “Cultures were incubated at 37° C. shaking at 250 RPM for 1-48 hours.” left out, “In FIG. 1E-H, serially diluted bacteria were also plated on MH agar plates with antibiotic added (colistin 16 μg/mL, ceftazidime128 μg/mL, fosfomycin 256 μg/mL(+25 mg/L G6P), and ampicillin 128 μg/mL). In FIGS. 5D, H culture tubes were imaged with a Canon EOS Rebel T3i.” left out

[6] = test system: pan-resistant Klebsiella pneumoniae isolate AR0040; type: cell-based; conditions: amikacin 64 μg/mL; piperacillin 256 μg/mL tazobactam 4 μg/mL
Method: as §2

[7] = test system: pan-resistant Klebsiella pneumoniae isolate Nevada-2016; type: cell-based
Method: as §3

Mu208 ΔphoQ = assay: Resistant subpopulations in the Mu208 phoQ deletion mutant; type: cell-based, Enterobacter cloacae; conditions: compared with parental Mu208
From the text: Colistin heteroresistance in Enterobacter requires the two-component system histidine kinase PhoQ which we deleted from Mu208 to test whether colistin heteroresistance was linked to ceftazidime or fosfomycin heteroresistance.
Cloning and mutagenesis. Mu208 ΔphoQ was generated by lambda red recombination. Briefly, a kanamycin cassette flanked by FRT sites with homology to the regions directly upstream and downstream, respectively, of the phoQ open reading frame (ORF) was inserted into the phoQ ORF in Mu208 with pKD46-tet, prior to it being removed with a flp recombinase encoded on the temperature sensitive plasmid, PCP20.

[8] = colistin 16, ceftazidime 128, fosfomycin 256 μg/mL

| Molecule | frequency of resistant subpopulation upon subculture in the absence of antibiotic [1] | frequency of the respective resistant subpopulation on treatment [1] | resistance designation of control isolate Mu1176 (Mu1176) | activity in combination with ampicillin [2] | initial reduction in bacterial levels ([2]; single antibiotic) | activity in combination with ampicillin [3] | resistance status of Mu208 by PAP [3] | proportion of the isolates exhibiting heteroresistance [4] [%] | behaviour of resistant subpopulation / outgrowth in the presence of the single antibiotic [2, 8] | concentration at which the resistant subpopulation survived ([3]; PAP) [fold the breakpoint] | resistance designation of control isolate Mu819 (Mu819) | also measured |
| --- | --- | --- | --- | --- | --- | --- | --- | --- | --- | --- | --- | --- |
| CC(C)(O/N=C(\C(=O)N[C@@H]1C(=O)N2C(C(=O)[O-])=C(C[n+]3ccccc3)CS[C@H]12)c1csc(N)n1)C(=O)O [ceftazidime] | returned to the baseline levels | robust increase | resistant | not enhanced | killing was delayed | not enhanced | heteroresistance | – | – | – | – | behaviour of resistant subpopulation / outgrowth in the presence of the single antibiotic [2]: rapidly increased in number; also recorded: unable to prevent subsequent outgrowth; concentration at which the resistant subpopulation survived [3]: 4 fold the breakpoint; resistance designation of control isolate Mu712 (Mu712): susceptible |
| CC1(C)S[C@@H]2[C@H](NC(=O)[C@H](N)c3ccccc3)C(=O)N2[C@H]1C(=O)O [ampicillin] | – | constant | resistant | – | did not lead to the initial reduction in bacterial levels | – | homogenous resistance | 1.0 | – | – | – | killing of cells in PAP ([3]; any of the concentrations tested): lack of significant killing; resistance designation of control isolate Mu661 (Mu661): susceptible |
| C[C@@H]1O[C@@H]1P(=O)(O)O [fosfomycin] | returned to the baseline levels | robust increase | resistant | not enhanced | – | not enhanced | heteroresistance | 72.1 | rapidly increased in number; also recorded: unable to prevent subsequent outgrowth | 4 | susceptible | killing of Nevada-2016 by single antibiotic [5]: killing of a significant proportion of the bacteria |
| NCC[C@H](O)C(=O)N[C@@H]1C[C@H](N)[C@@H](O[C@H]2O[C@H](CN)[C@@H](O)[C@H](O)[C@H]2O)[C@H](O)[C@H]1O[C@H]1O[C@H](CO)[C@@H](O)[C@H](N)[C@H]1O [amikacin] | – | – | – | – | – | – | – | – | – | – | – | initial killing of AR0040 by single drug [6]: significant initial killing; resistance status of Nevada-2016 by PAP [7]: homogenous resistance |
| colistin | returned to the baseline levels | robust increase | resistant | – | – | – | heteroresistance | – | expanded exponentially | 4 | susceptible | resistant subpopulation in the phoQ mutant (Mu208 ΔphoQ): absent; behaviour of resistant subpopulation / outgrowth in the presence of the single antibiotic ([2]; colistin 16, ceftazidime 128, fosfomycin 256 μg/mL, listed as Colistin): unable to prevent subsequent outgrowth; time within which the susceptible cells were killed ([2]; single antibiotic, colistin 16 μg/mL): one; activity in combination with ampicillin ([2]; time-kill with ampicillin): not enhanced; MIC of resistant subpopulation relative to the susceptible cells in the population ([3]; PAP): at least 32 fold; Mu208 cells killed by a concentration below the clinical breakpoint ([3]; PAP): Roughly 4 logs; activity in combination with ampicillin ([3]; dual PAP with ampicillin): not enhanced; killing of representative susceptible isolate in PAP (Mu819; concentration below the breakpoint, isolate not named at b160, Mu819): all the cells of a representative susceptible isolate were killed; outcome of treatment of a susceptible strain in time kill (Mu819; strain not named at b162, Mu819): eradicated |
